SMILES strings stand for the structures.

The term IC50 denotes the midpoint of a concentration-inhibition curve. As usually defined, the clearance is the rate of elimination divided by the concentration. Low readings indicate inefficient removal, high ones efficient removal. The term half-life denotes the time needed for the level to fall by half in the phase considered. Low values mean rapid decline, high ones slow decline. The term Vd denotes the apparent volume that relates the amount in the body to the concentration in plasma or blood.

Series [1] deals with T1, Tyrosine-protein kinase JAK2 (Homo sapiens, UniProt O60674). As to the kind of experiment: Inhibition of recombinant Jak2 (unknown origin) using biotinylated synthetic peptide substrate by homogeneous time resolved fluorescence assay.
Series [2] deals with T1, Tyrosine-protein kinase JAK2. Description: Inhibition of Jak2 (unknown origin) assessed as inhibition of STAT5 phosphorylation by cell-based assay.
The next series relates to Mus musculus. Description: Inhibition of Jak2 (unknown origin) in po dosed […] mouse assessed as inhibition of STAT5 phosphorylation measured after 1 to 8 hrs of dosing by PK/PD assay. It is filed as functional, organism-based.
A short description of series [3]: Plasma protein binding in rat. It is filed as ADME, cell-free. The following applies: read-out: PPB (converted).
For a further series, the species on record is Rattus norvegicus. Description: Unbound clearance in rat. It is filed as ADME, organism-based. The note with it: in vivo.
Series [4] is described as follows: Plasma clearance in rat. Type of series: ADME, organism-based.
Series [5] is described as follows: Half life in rat. Type of series: ADME, organism-based. The following applies: in vivo.
Series [6] in a line: Volume of distribution in rat. It is filed as ADME, organism-based. The note with it: in vivo.
The mark [7] stands for this setting: Mus musculus, C56bl/6, read-out: IC50.

T1 sequence (O60674 whole entry): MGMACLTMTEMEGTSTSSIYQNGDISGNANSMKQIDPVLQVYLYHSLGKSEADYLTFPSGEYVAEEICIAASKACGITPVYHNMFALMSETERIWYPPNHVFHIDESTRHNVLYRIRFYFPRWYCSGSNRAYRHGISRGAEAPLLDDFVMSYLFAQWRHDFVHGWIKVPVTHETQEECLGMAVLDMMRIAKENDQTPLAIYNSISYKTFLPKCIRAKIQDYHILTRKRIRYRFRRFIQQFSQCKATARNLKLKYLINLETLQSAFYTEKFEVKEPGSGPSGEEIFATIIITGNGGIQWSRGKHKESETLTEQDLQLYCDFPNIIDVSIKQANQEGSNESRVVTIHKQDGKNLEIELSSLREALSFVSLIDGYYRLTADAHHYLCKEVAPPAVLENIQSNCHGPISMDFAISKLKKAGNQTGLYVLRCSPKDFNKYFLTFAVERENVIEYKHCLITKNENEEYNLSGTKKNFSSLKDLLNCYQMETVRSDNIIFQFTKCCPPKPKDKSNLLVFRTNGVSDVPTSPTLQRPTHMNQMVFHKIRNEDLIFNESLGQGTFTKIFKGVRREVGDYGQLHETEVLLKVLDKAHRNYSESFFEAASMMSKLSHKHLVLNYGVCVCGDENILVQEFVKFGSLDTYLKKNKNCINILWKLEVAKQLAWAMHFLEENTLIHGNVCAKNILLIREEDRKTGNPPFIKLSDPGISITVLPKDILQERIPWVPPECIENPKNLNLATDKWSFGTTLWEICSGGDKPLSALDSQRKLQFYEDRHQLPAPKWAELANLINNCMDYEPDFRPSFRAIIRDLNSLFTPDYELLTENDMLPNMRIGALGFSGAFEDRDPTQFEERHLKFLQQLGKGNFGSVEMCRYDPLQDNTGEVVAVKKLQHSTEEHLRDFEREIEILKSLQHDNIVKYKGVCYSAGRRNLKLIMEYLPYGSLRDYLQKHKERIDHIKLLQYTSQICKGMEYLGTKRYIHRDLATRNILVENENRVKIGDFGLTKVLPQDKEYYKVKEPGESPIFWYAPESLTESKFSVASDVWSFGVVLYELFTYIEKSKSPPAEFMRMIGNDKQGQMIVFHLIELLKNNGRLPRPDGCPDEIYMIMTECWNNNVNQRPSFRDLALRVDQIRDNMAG

Consider `O=c1[nH]ccc2c(NC3CC3)nc3ccc(F)cc3c12`, for which, in series [1], the IC50 came to 200 nM.
In the case of `O=c1[nH]ccc2c(Nc3c(Cl)cc(F)cc3Cl)nc3ccncc3c12`, the IC50 in series [2] was 14 nM; in series [1], 0.8 nM.
In the same order, the values of `CC(C)[C@H](Nc1nc2ccncc2c2c(=O)[nH]ccc12)C(F)(F)F` are 170 nM and 10 nM.
`O=c1[nH]ccc2c(Nc3c(Cl)cc(-c4ccn[nH]4)cc3Cl)nc3ccncc3c12`: the values for the IC50 result (in the series with Mus musculus; in series [2]; in series [1]) were “Not Active”, 37 nM and 1 nM, respectively. In addition, in series [3], the fraction unbound is 0.001. The CL in the series filed under Rattus norvegicus was 10000 mL/min/kg. The same compound came in with a clearance in series [4] of 10 mL/min/kg.
`O=c1[nH]ccc2c(Nc3c(Cl)cncc3Cl)nc3ccncc3c12`: the figures for the IC50 in series [2] and in series [1] were 24 nM and 2 nM, respectively.
Take `CC(O)c1cc(Cl)c(Nc2nc3ccncc3c3c(=O)[nH]ccc23)c(Cl)c1` (stereo not drawn): the IC50 came to 400 nM with Mus musculus (setting [7]), 12 nM in series [2] and 0.6 nM in series [1]. Moreover, in series [3], the fraction unbound is 0.048. The compound also gave a CL in the series listed under Rattus norvegicus of 1125 mL/min/kg. In series [4], this compound showed a clearance of 54 mL/min/kg.
`O=c1[nH]ccc2nc(NC3CC3)c3ccc(F)cc3c12`: in series [1], the 50% inhibitory concentration (IC50) came to 100 nM.
As to `O=c1[nH]ccc2c(Nc3c(Cl)cc(C(O)C(F)F)cc3Cl)nc3ccncc3c12` (stereo not drawn), the IC50 in the series on Mus musculus (setting [7]) turned out to be 1300 nM; in series [2] it was 26 nM; in series [1], 0.2 nM. Besides, the fraction unbound in series [3] is 0.028. Moreover, the CL in the series listed under Rattus norvegicus amounted to 571 mL/min/kg. This compound returned a clearance in series [4] of 16 mL/min/kg.
For the compound `O=c1[nH]ccc2c(Nc3c(F)cccc3C(F)(F)F)nc3ccncc3c12`, the IC50 in series [2] turned out to be 90 nM; in series [1], 9 nM.
With `CC(C)(O)c1cc(Cl)c(Nc2nc3ccncc3c3c(=O)[nH]ccc23)c(Cl)c1`, the IC50 with Mus musculus (setting [7]) is 1200 nM; in series [2], 18 nM; in series [1] it was 0.5 nM. The fraction unbound in series [3] is 0.026. The CL in the series filed under Rattus norvegicus was 1115 mL/min/kg. In series [4], this compound yielded a clearance of 29 mL/min/kg.
In the case of `CC(C)[C@@H](Nc1nc2cc[nH]c(=O)c2c2cnccc12)C(F)(F)F`, in series [4], the clearance was 68 mL/min/kg.
For the compound `O=c1[nH]ccc2c(Nc3c(Cl)cc(OC(F)(F)F)cc3Cl)nc3ccncc3c12`, the IC50 in series [2] stood at 140 nM; in series [1] it was 3 nM.
In the case of `O=c1[nH]ccc2c(Nc3c(F)cc(F)cc3Cl)nc3ccncc3c12`, the IC50 turned out to be 2300 nM in the series on Mus musculus (setting [7]), 15 nM in series [2] and 0.9 nM in series [1]. Also, the fraction unbound in series [3] was 0.048. Also, in the series listed under Rattus norvegicus, the CL came to 875 mL/min/kg. The same compound gave a half-life in series [5] of 48 min. The compound also came in with a clearance in series [4] of 41 mL/min/kg. Also, the Vd in series [6] amounted to 2.6 L/kg.
Take `O=c1[nH]ccc2c(Nc3c(F)cc(F)cc3F)nc3ccncc3c12`: the IC50 in series [2] amounted to 90 nM; in series [1] it was 7 nM.
As to `NS(=O)(=O)c1cc(Cl)c(Nc2nc3ccncc3c3c(=O)[nH]ccc23)c(Cl)c1`, the IC50 result with Mus musculus is “Not Active”; in series [2], 113 nM; in series [1], 0.15 nM. This compound also showed a clearance in series [4] of 50 mL/min/kg.
As to `O=c1[nH]ccc2c(Nc3c(Cl)cc(C(F)(F)F)cc3Cl)nc3ccncc3c12`, the IC50 is 49 nM in series [2] and 1 nM in series [1].

These data come from ChEMBL document CHEMBL3124786, “The discovery of reverse tricyclic pyridone JAK2 inhibitors. Part 2: lead optimization” (Bioorg Med Chem Lett, 2014).
